In ChEMBL document CHEMBL2346609, “Synthesis, characterization and Akt phosphorylation inhibitory activity of cyclopentanecarboxylate-substituted alkylphosphocholines” (Bioorg Med Chem, 2013):
pIC50: −log10 of the molar value.

Experiments:
[1] = Cytotoxicity against human KATO III cells by flow cytometric analysis; format: functional, cell-based, KATO III cell
MCF7 = experiment: Cytotoxicity against human MCF7 cells by flow cytometric analysis; format: functional, cell-based
A549 [2] = experiment: Cytotoxicity against human A549 cells by flow cytometric analysis; format: functional, cell-based
[3] = target: RAC-alpha serine/threonine-protein kinase (Homo sapiens, UniProt P31749); experiment: Inhibition of Akt phosphorylation in human insulin-stimulated A549 cells incubated for 2 hrs prior to insulin-induction measured after 30 mins by ELISA; format: cell-based
A549 [4] = experiment: Ratio of edelfosine IC50 to compound IC50 for human A549 cells; format: functional
A549 [5] = experiment: Ratio of perifosine IC50 to compound IC50 for human A549 cells; format: functional
A549 [6] = experiment: Ratio of miltefosine IC50 to compound IC50 for human A549 cells; format: functional

Sequence of RAC-alpha serine/threonine-protein kinase (P31749 whole entry): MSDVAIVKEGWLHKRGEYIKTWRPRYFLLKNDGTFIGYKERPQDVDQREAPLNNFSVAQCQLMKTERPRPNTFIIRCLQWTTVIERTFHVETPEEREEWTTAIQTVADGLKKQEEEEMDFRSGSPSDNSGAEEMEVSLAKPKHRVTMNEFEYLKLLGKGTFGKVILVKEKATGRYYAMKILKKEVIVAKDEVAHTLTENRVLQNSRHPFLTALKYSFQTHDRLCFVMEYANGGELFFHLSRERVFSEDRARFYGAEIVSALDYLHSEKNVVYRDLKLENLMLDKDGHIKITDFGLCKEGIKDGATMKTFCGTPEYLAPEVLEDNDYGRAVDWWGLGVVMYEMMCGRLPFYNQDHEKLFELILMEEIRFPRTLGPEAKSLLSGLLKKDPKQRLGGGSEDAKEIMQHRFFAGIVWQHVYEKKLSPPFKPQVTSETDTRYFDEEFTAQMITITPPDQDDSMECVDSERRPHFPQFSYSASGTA

Row | SMILES | pIC50 [3] | pIC50 [1] | pIC50 (MCF7) | pIC50 (A549 [2]) | Ratio IC50 (A549 [4]) | Ratio IC50 (A549 [5]) | Ratio IC50 (A549 [6])
1 | CCCCCCCCCCCCC[C@@]1(C(=O)OCC)CCC[C@@H]1OP(=O)([O-])OCC[N+](C)(C)C (racemic) | 5.21 | 5.01 | 5.35 | 5.57 | – | – | –
2 | CCCCCCCCCCCCCCCCCCCCCC[C@@]1(C(=O)OCC)CCC[C@H]1OP(=O)([O-])OCC[N+](C)(C)C (racemic) | 5.26 | 4.98 | 4.77 | 5.16 | – | – | –
3 | CCCCCCCCCCCCCCCCCCCCCC[C@@]1(C(=O)OCC)CCC[C@@H]1OP(=O)([O-])OCC[N+](C)(C)C (racemic) | 4.72 | 4.94 | 5.12 | 4.75 | – | – | –
4 | CCCCCCCCCCCCCCCCCC[C@@]1(C(=O)OCC)CCC[C@H]1OP(=O)([O-])OCC[N+](C)(C)C (racemic) | 4.96 | 4.82 | 4.88 | 5.21 | – | – | –
5 | CCCCCCCCCCCCCCCCCCCC[C@@]1(C(=O)OCC)CCC[C@H]1OP(=O)([O-])OCC[N+](C)(C)C (racemic) | 5.15 | 4.95 | 5.01 | 4.87 | – | – | –
6 | CCCCCCCCCCCCCCCC[C@@]1(C(=O)OCC)CCC[C@@H]1OP(=O)([O-])OCC[N+](C)(C)C (racemic) | 5.30 | 4.97 | 4.95 | 5.44 | – | – | –
7 | CCCCCCCCCCCCCCCCOP(=O)([O-])OCC[N+](C)(C)C [MILTEFOSINE] | 5.02 | – | – | – | – | – | –
8 | CCCCCCCCCCCCCCCCCCOP(=O)([O-])OC1CC[N+](C)(C)CC1 [PERIFOSINE] | 5.28 | – | – | – | – | – | –
9 | CCCCCCCCCCCCCCCCCCCC[C@@]1(C(=O)OCC)CCC[C@@H]1OP(=O)([O-])OCC[N+](C)(C)C (racemic) | 5.16 | 4.96 | 4.80 | 5.14 | – | – | –

Compounds with a higher pIC50 [3], results first:

Row | pIC50 [3] | SMILES | pIC50 [1] | pIC50 (MCF7) | pIC50 (A549 [2]) | Ratio IC50 (A549 [4]) | Ratio IC50 (A549 [5]) | Ratio IC50 (A549 [6])
10 | 5.46 | CCCCCCCCCCCCCCCCCCOCC(COP(=O)([O-])OCC[N+](C)(C)C)OC (configuration not stated) [EDELFOSINE] | 4.89 | 5.03 | 5.13 | – | – | –
11 | 5.51 | CCCCCCCCCCCCC[C@@]1(C(=O)OCC)CCC[C@H]1OP(=O)([O-])OCC[N+](C)(C)C (racemic) | 4.85 | 4.95 | 5.70 | 4 | 4 | 4
12 | 5.52 | CCCCCCCCCCCCCCCCCC[C@@]1(C(=O)OCC)CCC[C@@H]1OP(=O)([O-])OCC[N+](C)(C)C (racemic) | 5.00 | 5.12 | 5.34 | – | – | –
13 | 5.70 | CCCCCCCCCCCCCCCC[C@@]1(C(=O)OCC)CCC[C@H]1OP(=O)([O-])OCC[N+](C)(C)C (racemic) | 5.10 | 5.25 | 5.80 | 4 | 4 | 4
